Usually IC50 stands for the concentration needed to halve the response being measured. A higher IC50 goes with weaker potency in that assay.

Assay [1] has as its system TNF-α (NF-κB pathway, THP-1 cells). The assay is described as follows: TNF-α Assay (IC50). Type of assay: cell-based, human. The following applies: Homo sapiens, 600 ng/mL LPS, 3 hours. The essentials: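 THP-1 cells differentiated to macrophages with 25 ng/mL IFN for 24 h, plated 40,000/well in serum-free medium, preincubated with compounds 30 min at 37 °C, then stimulated with 600 ng/mL LPS for 3 h. Supernatant TNF-α measured by ELISA; IC50 from four-parameter logistic fit, 100% inhibition defined by TPCA-1.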

The subject of assay [2] is NLRP3 inflammasome (IL-1β production in THP-1 cells). The assay is described as follows: IL-1β TR-FRET Assay (percentage of inhibition at 300 nM, 6 μM or 10 μM). Type of assay: cell-based, human. To be noted: Homo sapiens, LPS priming, ATP activation; for inhibition at 0.3 µM: THP-1, 300 nM, read-out: IL-1β inhibitory rate at 300 nM (%); for inhibition at 6 µM: THP-1, 6 μM, read-out: IL-1β inhibitory rate at 6 μM (%). The essentials: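 THP-1 cells were differentiated with 25 ng/mL IFN-γ for 24 h, primed with 50 ng/mL LPS in serum-free medium for 24 h, then given compound for 30 min before 20 mM ATP for 2 h. Supernatant IL-1β was measured by HTRF after 16-24 h at room temperature. Inhibition was normalized between DMSO (high) and 3 μM MCC-950 (low).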

In turn, `Cc1cc(C2CC2)cc(C)c1-n1cc2c(=O)[nH]c([C@H]3CC3(F)F)nc2n1` [Example 191, 2-(4-cyclopropyl-2,6-dimethylphenyl)-6-(2,2-difluorocyclopropyl)-2,5-dihydro-4H-pyrazolo[3,4-d]pyrimidin-4-one] displayed an IC50 in assay [1] of more than 30 µM. Besides, in assay [2], the inhibition at 0.3 µM was found to be 109%.

On to `CCOc1nc2nn(-c3c(F)cc(C)cc3CC(F)(F)F)cc2c(=O)[nH]1` [Example 134, 6-ethoxy-2-[2-fluoro-4-methyl-6-(2,2,2-trifluoroethyl)phenyl]-2,5-dihydro-4H-pyrazolo[3,4-d]pyrimidin-4-one], for which the IC50 in assay [1] is more than 30 µM. The inhibition at 0.3 µM in assay [2] was determined as 96%.

As to `COC[C@H](C)Oc1nc2nn(-c3c(F)cc(C4CC4)cc3C(F)F)cc2c(=O)[nH]1` [Example 205, 2-[4-cyclopropyl-2-(difluoromethyl)-6-fluorophenyl]-6-{[(2S)-1-methoxypropan-2-yl]oxy}-2,5-dihydro-4H-pyrazolo[3,4-d]pyrimidin-4-one], in assay [1], the IC50 was more than 30 µM. Further, in assay [2], the inhibition at 0.3 µM is 95%.

`Cc1cc(C2CC2)cc(C)c1-n1cc2c(=O)[nH]c(-c3ccn(C)n3)nc2n1` [Example 297, 2-(4-cyclopropyl-2,6-dimethylphenyl)-6-(1-methyl-1H-pyrazol-3-yl)-2,5-dihydro-4H-pyrazolo[3,4-d]pyrimidin-4-one] gave an IC50 in assay [1] of more than 30 µM. Besides, in assay [2], the inhibition at 6 µM turned out to be 90%.

For `CCOc1nc2nn(-c3c(Br)cc(OC(F)F)cc3C(F)F)cc2c(=O)[nH]1` [Example 184, 2-[2-bromo-4-(difluoromethoxy)-6-(difluoromethyl)phenyl]-6-ethoxy-2,5-dihydro-4H-pyrazolo[3,4-d]pyrimidin-4-one], in assay [1], the IC50 is more than 30 µM. Besides, the inhibition at 0.3 µM in assay [2] is 94%.

Consider `CCOc1nc2nn(-c3c(C)cc(OC)cc3Br)cc2c(=O)[nH]1` [Example 143, 2-(2-bromo-4-methoxy-6-methylphenyl)-6-ethoxy-2,5-dihydro-4H-pyrazolo[3,4-d]pyrimidin-4-one], for which the IC50 in assay [1] is more than 30 µM. Also, the inhibition at 0.3 µM in assay [2] is 93%.

`CCOc1nc2nn(-c3c(C)cc(C4CC4)cc3OC(F)F)cc2c(=O)[nH]1` [Example 222, 2-[4-cyclopropyl-2-(difluoromethoxy)-6-methylphenyl]-6-ethoxy-2,5-dihydro-4H-pyrazolo[3,4-d]pyrimidin-4-one]: the IC50 in assay [1] was more than 30 µM. For the same molecule, the inhibition at 0.3 µM in assay [2] turned out to be 98%.

With `CCOc1nc2nn(-c3ccc(C4CC4)cn3)cc2c(=O)[nH]1` [Example 130, 2-(5-cyclopropylpyridin-2-yl)-6-ethoxy-2,5-dihydro-4H-pyrazolo[3,4-d]pyrimidin-4-one], the IC50 in assay [1] is more than 30 µM. Further, the inhibition at 10 µM in assay [2] (THP-1, 10 μM, read-out: IL-1β inhibitory rate at 10 μM (%)) came out at 37%.

In turn, `Cc1cc(C)c(-n2cc3c(=O)[nH]c(-c4ccnc(C)n4)nc3n2)c(O)c1` [Example 15, 2-(2-hydroxy-4,6-dimethylphenyl)-6-(2-methylpyrimidin-4-yl)-2,5-dihydro-4H-pyrazolo [3,4-d]pyrimidin-4-one] came in with an IC50 in assay [1] of more than 30 µM. In addition, the inhibition at 0.3 µM in assay [2] came to 99%.

Molecule `Cc1cc(C2CC2)cc(C)c1-n1cc2c(=O)[nH]c([C@@]3(F)CCCOC3)nc2n1` [Example 260, 2-(4-cyclopropyl-2,6-dimethylphenyl)-6-(3-fluorooxan-3-yl)-2,5-dihydro-4H-pyrazolo[3,4-d]pyrimidin-4-one] showed an IC50 in assay [1] of more than 30 µM. In addition, the inhibition at 6 µM in assay [2] was 96%.

Molecule `Cc1cc(C2CC2)cc(C)c1-n1cc2c(=O)[nH]c(CC(F)(F)F)nc2n1` [Example 211, 2-(4-cyclopropyl-2,6-dimethylphenyl)-6-(2,2,2-trifluoroethyl)-2,5-dihydro-4H-pyrazolo[3,4-d]pyrimidin-4-one] yielded an IC50 in assay [1] of more than 30 µM. Moreover, the inhibition at 0.3 µM in assay [2] turned out to be 107%.

Take `CCOc1nc2nn(-c3c(F)cc(C)cc3C3CC3(F)F)cc2c(=O)[nH]1` (stereo not drawn) [Example 79, 2-[2-(2,2-difluorocyclopropyl)-6-fluoro-4-methylphenyl]-6-ethoxy-2,5-dihydro-4H-pyrazolo[3,4-d]pyrimidin-4-one]: in assay [1], the 50% inhibitory concentration (IC50) is more than 30 µM. Besides, in assay [2], the inhibition at 0.3 µM was 95%.

In the case of `CCOc1nc2nn(-c3c(C)cc(C)cc3O)c(C)c2c(=O)[nH]1` [Example 37, 6-ethoxy-2-(2-hydroxy-4,6-dimethylphenyl)-3-methyl-2,5-dihydro-4H-pyrazolo[3,4-d]pyrimidin-4-one], the concentration for half-maximal inhibition (IC50) in assay [1] was more than 30 µM. Also, the inhibition at 0.3 µM in assay [2] amounted to 101%.

In assay [1], `CCOc1nc2nn(-c3c(C)cc(C)cc3O)c(Cl)c2c(=O)[nH]1` [Example 26, 3-chloro-6-ethoxy-2-(2-hydroxy-4,6-dimethylphenyl)-2,5-dihydro-4H-pyrazolo[3,4-d]pyrimidin-4-one] returned an IC50 of more than 30 µM. The inhibition at 0.3 µM in assay [2] is 94%.

In the case of `CCOc1nc2nn(-c3c(F)cc(C(F)(F)F)cc3Br)cc2c(=O)[nH]1` [Example 54, 2-[2-bromo-6-fluoro-4-(trifluoromethyl)phenyl]-6-ethoxy-2,5-dihydro-4H-pyrazolo[3,4-d]pyrimidin-4-one], the IC50 in assay [1] was more than 30 µM. Besides, in assay [2], the inhibition at 0.3 µM turned out to be 100%.

Turning to `Cc1cc(C)c(-n2cc3c(=O)[nH]c(-c4ccccc4Cl)nc3n2)c(O)c1` [Example 45, 6-(2-chlorophenyl)-2-(2-hydroxy-4,6-dimethylphenyl)-2,5-dihydro-4H-pyrazolo[3,4-d]pyrimidin-4-one], in assay [1], the 50% inhibitory concentration (IC50) is more than 30 µM. Moreover, the inhibition at 0.3 µM in assay [2] was found to be 100%.

Molecule `COCCOc1nc2nn(-c3c(C)cc(Br)cc3C(F)F)cc2c(=O)[nH]1` [Example 215, 2-[4-bromo-2-(difluoromethyl)-6-methylphenyl]-6-(2-methoxyethoxy)-2,5-dihydro-4H-pyrazolo[3,4-d]pyrimidin-4-one] displayed a half-inhibitory concentration (IC50) in assay [1] of more than 30 µM. In assay [2], the inhibition at 0.3 µM is 105%.

In assay [1], `CCOc1nc2nn(-c3ncc(Br)cc3C)cc2c(=O)[nH]1` [Example 150, 2-(5-bromo-3-methylpyridin-2-yl)-6-ethoxy-2,5-dihydro-4H-pyrazolo[3,4-d]pyrimidin-4-one] came in with an IC50 of more than 30 µM. Moreover, the inhibition at 0.3 µM in assay [2] was 70%.

Consider `Cc1cc(C)c(-n2cc3c(=O)[nH]c(OC(C)C(F)(F)F)nc3n2)c(O)c1` (stereo not drawn) [Example 43, 2-(2-hydroxy-4,6-dimethylphenyl)-6-[(1,1,1-trifluoropropan-2-yl)oxy]-2,5-dihydro-4H-pyrazolo[3,4-d]pyrimidin-4-one], for which, in assay [1], the IC50 is more than 30 µM. For the same molecule, in assay [2], the inhibition at 0.3 µM was 98%.

In assay [1], `CCOc1nc2nn(-c3c(F)cc(C4CC4)cc3C(O)C(F)(F)F)cc2c(=O)[nH]1` (racemic) [Example 192, 2-[4-cyclopropyl-2-fluoro-6-(2,2,2-trifluoro-1-hydroxyethyl)phenyl]-6-ethoxy-2,5-dihydro-4H-pyrazolo[3,4-d]pyrimidin-4-one] returned an IC50 of more than 30 µM. In addition, the inhibition at 0.3 µM in assay [2] turned out to be 95%.

`COc1nc2nn(-c3c(C)cc(C4CC4)cc3CC(F)(F)F)cc2c(=O)[nH]1` [Example 230, 2-[4-cyclopropyl-2-methyl-6-(2,2,2-trifluoroethyl)phenyl]-6-methoxy-2,5-dihydro-4H-pyrazolo[3,4-d]pyrimidin-4-one] returned a 50% inhibitory concentration (IC50) in assay [1] of more than 30 µM. Further, the inhibition at 6 µM in assay [2] was 93%.

(Values after patent US20260297092A1, “PYRAZOLOPYRIMIDINE DERIVATIVES AS INHIBITORS OF NLRP3” (Takeda Pharmaceutical Company Limited, priority 2023, published 2026).)
